Measurements: ChEMBL document CHEMBL1201862, “PubChem BioAssay data set” (2004)
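Step 1: Grow cells in 96-well plates. Step 2: Expose to compound for 48 hours at 5 concentrations. Step 3: Interpolate endpoints linearly; if unreached, use highest concentration. GI50 is the concentration that inhibits growth by half.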 Calls of active or inactive are those of the source. Rule as the data show it: active = GI50 up to about 1.1 µM and inactive = higher.

Experiments:
Experiment in all cases: DTP human tumour cell line panel, 48 h
[1] = system: CAKI-1
[2] = system: SNB-19
[3] = system: HOP-18
[4] = system: OVCAR-5
[5] = system: Malme-3M
[6] = system: XF498
[7] = system: SK-OV-3
[8] = system: EKVX
[9] = system: UO-31
[10] = system: NCI-H226
[11] = system: SW-620
[12] = system: HOP-92
[13] = system: SR
[14] = system: SK-MEL-5
[15] = system: M19-MEL
[16] = system: M14
[17] = system: UACC-257
[18] = system: U-251
[19] = system: MOLT-4
[20] = system: TK-10
[21] = system: SF-295
[22] = system: OVCAR-3
[23] = system: A549
[24] = system: DLD-1
[25] = system: NCI-H522
[26] = system: SK-MEL-28
[27] = system: UACC-62
[28] = system: NCI-H23
[29] = system: K562
[30] = system: OVCAR-4
[31] = system: KM-20L2
[32] = system: SNB-75
[33] = system: HL-60
[34] = system: HOP-62
[35] = system: 786-0
[36] = system: IGROV-1
[37] = system: HCC 2998
[38] = system: CCRF-CEM
[39] = system: LOX IMVI
[40] = system: SNB-78
[41] = system: ACHN
[42] = system: DMS-114
[43] = system: KM12
[44] = system: DMS-273
[45] = system: RXF 393
[46] = system: SN12C
[47] = system: LXFL 529
[48] = system: OVCAR-8
[49] = system: SF-268
[50] = system: A498
[51] = system: HT-29
[52] = system: RXF 631
[53] = system: COLO 205
[54] = system: HCT-116
[55] = system: SF-539

Measured: GI50

COc1cc(=O)oc(/C=C/C=O)c1C
inactive: [1] 33 µM | [2] 14.8 µM | [3] 18 µM | [4] 38.3 µM | [5] 21.7 µM | [6] 17 µM | [7] 27.2 µM | [8] 35.7 µM | [9] 20.8 µM | [10] 31.2 µM | [11] 19.4 µM | [12] 26.9 µM | [13] 2.79 µM | [14] 20.6 µM | [15] 18.1 µM | [16] 17.9 µM | [17] 18.9 µM | [18] 14.3 µM | [19] 27.5 µM | [20] 31.2 µM | [21] 15.8 µM | [22] 19 µM | [23] > 100 µM | [24] 16 µM | [25] 19.8 µM | [26] 12.6 µM | [27] 16 µM | [28] 21.9 µM | [29] 8.53 µM | [30] 17 µM | [31] 16.8 µM | [32] 16.3 µM | [33] 13.5 µM | [34] 19.5 µM | [35] 20.7 µM | [36] 30.4 µM | [37] 17.9 µM | [38] 5.36 µM | [39] 5.2 µM | [40] > 10 µM | [41] 19.2 µM | [42] 12.7 µM | [43] 21.9 µM | [44] 17.2 µM | [45] 18.8 µM | [46] 8.24 µM | [47] 17.1 µM | [48] 26.3 µM | [49] 13.6 µM | [50] > 100 µM | [51] 19.9 µM | [52] 14.7 µM | [53] 16.4 µM | [54] 5.21 µM | [55] 18.7 µM
